From the Deep4Chem optical property database
Where “and” joins values, the source holds several entries; their conditions need not be identical. Identical values can stand only once. Each block holds one molecule with its values, some of them ahead of it.

Assay: solvent given as SMILES

SMILES: CN(C)c1ccc(/C=C/C=C/c2nc3ccccc3o2)cc1
emission maximum (in C1COCCO1): 508 nm | emission maximum (in CC#N): 535 nm | emission maximum (in CC(C)=O): 531 nm | emission maximum (in CCCCCC): 474 nm | emission maximum (in CCCCO): 525 nm | emission maximum (in CCCO): 526 nm | emission maximum (in CCO): 531 nm | emission maximum (in CN(C)C=O): 538 nm | emission maximum (in CO): 539 nm | emission maximum (in Cc1ccccc1): 496 nm | emission maximum (in ClC(Cl)(Cl)Cl): 491 nm | emission maximum (in ClC(Cl)Cl): 517 nm | emission maximum (in ClCCl): 525 nm | emission maximum (in OCC(O)CO): 566 nm | emission maximum (in OCCO): 562 nm | emission maximum (in c1ccccc1): 503 nm

SMILES: CC1(C)c2ccccc2N(c2ccc(-c3nc(C#N)c(C#N)nc3-c3ccc(N4c5ccccc5C(C)(C)c5ccccc54)cc3)cc2)c2ccccc21
emission maximum (in Cc1ccccc1): 620 nm | emission maximum (in c1cc(-c2cccc(-n3c4ccccc4c4ccccc43)c2)cc(-n2c3ccccc3c3ccccc32)c1): 570 nm

SMILES: c1ccc(-n2c(-c3ccc([Si](c4ccc(-c5nc6ccccc6n5-c5ccccc5)cc4)(c4ccc(-c5nc6ccccc6n5-c5ccccc5)cc4)c4ccc(-c5nc6ccccc6n5-c5ccccc5)cc4)cc3)nc3ccccc32)cc1
emission maximum (in ClCCl): 363 nm

SMILES: CCN(CC)c1ccc2cc(-c3csc(N)c3C#N)c(=O)oc2c1
emission maximum (in C1CCOC1): 458 nm | emission maximum (in CO): 514 nm | emission maximum (in CS(C)=O): 482 nm | emission maximum (in Cc1ccccc1): 447 nm | emission maximum (in ClCCl): 464 nm

SMILES: F[B-]1(F)n2cccc2C(c2c3ccccc3c(-c3ccccc3)c3ccccc23)=C2C=CC=[N+]21
emission maximum (in CC#N): 524 nm | emission maximum (in CCCCCC): 564 nm | emission maximum (in CCO): 522 nm | emission maximum (in CN(C)C=O): 526 nm | emission maximum (in Cc1ccccc1): 529 nm | emission maximum (in ClCCl): 526 nm

SMILES: COCCC1=Cc2nc1ccc1[nH]c(cc1CCOC)c1nc(c(OC(C)=O)cc3[nH]c2cc3CCOC)C(CCOC)=C1
emission maximum (in Cc1ccccc1): 652 nm

SMILES: CCC1=C(C)C2=C(c3c4ccccc4c(-c4ccccc4)c4ccccc34)c3c(C)c(CC)c(C)n3[B-](F)(F)[N+]2=C1C
emission maximum (in CC#N): 536 nm | emission maximum (in CCCCCC): 539 nm | emission maximum (in CCO): 538 nm | emission maximum (in CN(C)C=O): 539 nm | emission maximum (in Cc1ccccc1): 544 nm | emission maximum (in ClCCl): 543 nm

SMILES: COc1ccc(/C=C/c2ccccc2)cc1OC
emission maximum (in C1CCCCC1): 372 nm | emission maximum (in CC#N): 385 nm | emission maximum (in CC(C)O): 374 nm | emission maximum (in CCCCOCCCC): 375 nm | emission maximum (in CCOC(C)=O): 382 nm | emission maximum (in CCOCC): 373 nm

SMILES: c1ccc(-n2c(-c3ccc(-c4ccc(-c5ccc(-c6nc7c8ccccc8c8ccccc8c7n6-c6ccccc6)cc5)cc4)cc3)nc3ccccc32)cc1
emission maximum (in C1CCOC1): 435 nm | emission maximum (in C1COCCO1): 414 nm | emission maximum (in CC#N): 447 nm | emission maximum (in CCCCCC): 404 nm | emission maximum (in CCCCOCCCC): 411 nm | emission maximum (in CCN(CC)CC): 409 nm | emission maximum (in CCOC(C)=O): 425 nm | emission maximum (in CCOCC): 427 nm | emission maximum (in CN(C)C=O): 447 nm | emission maximum (in Cc1ccccc1): 413 nm | emission maximum (in ClC(Cl)Cl): 427 nm | emission maximum (in ClC=C(Cl)Cl): 417 nm | emission maximum (in ClCCl): 432 nm

SMILES: CC(C)(C)c1ccc2c(c1)c1cc(C(C)(C)C)ccc1n2-c1ccc(N(c2ccc(-c3ccc(-c4ccc(-c5ccc(-c6ccc(N(c7ccc(-n8c9ccc(C(C)(C)C)cc9c9cc(C(C)(C)C)ccc98)cc7)c7ccc(-n8c9ccc(C(C)(C)C)cc9c9cc(C(C)(C)C)ccc98)cc7)cc6)s5)c5nsnc45)s3)cc2)c2ccc(-n3c4ccc(C(C)(C)C)cc4c4cc(C(C)(C)C)ccc43)cc2)cc1
emission maximum (in ClCCl): 640 nm

SMILES: CC1(C)c2ccccc2N(c2cc3c4ccccc4n4c5ccccc5c(c2)c34)c2ccccc21
emission maximum (in C1CCCCC1): 416.92 nm | emission maximum (in C1CCOC1): 470.91 nm | emission maximum (in Cc1ccccc1): 439 nm

SMILES: N#Cc1cc2ccc(cc2)c2cccc3cccc(c4ccc(cc4)cc(C#N)c4ccc(cc4)c4cccc5cccc(c6ccc1cc6)c54)c32
emission maximum (in Cc1ccccc1): 496 nm

SMILES: CC1(C)c2ccccc2N(c2ccc(-c3cnc(C#N)nc3)cc2)c2ccccc21
emission maximum (in Cc1ccccc1): 524 nm | emission maximum (in N#Cc1ccc2c(c1)c1ccccc1n2-c1cccc(-n2c3ccccc3c3ccccc32)c1): 526 nm

SMILES: O=C(/C=C/c1cn(-c2ccccc2)nc1-c1ccccc1)c1c(O)c2ccccc2oc1=O
emission maximum (in C1CCOC1): 489 nm | emission maximum (in C1COCCO1): 482 nm | emission maximum (in CCO): 507 nm | emission maximum (in CCOC(C)=O): 487 nm | emission maximum (in CN(C)C=O): 505 nm | emission maximum (in CO): 504 nm | emission maximum (in CS(C)=O): 510 nm | emission maximum (in Cc1ccccc1): 480 nm | emission maximum (in ClC(Cl)Cl): 493 nm | emission maximum (in ClCCl): 502 nm

SMILES: C[C@]12C(=O)NC(=O)N([C@H]3CC(O)[C@@H](CO)O3)[C@H]1[C@H]1Oc3cc4oc(=O)ccc4cc3[C@H]12 (stereo not given in full)
emission maximum (in CC(C)O): 428 nm | emission maximum (in CCO): 432 nm | emission maximum (in CCOCC): 410 nm | emission maximum (in CO): 446 nm | emission maximum (in O): 465 nm

SMILES: CC1(C)c2cccc(-c3nc(-c4ccccc4)nc(-c4ccccc4)n3)c2Oc2c(-n3c4ccccc4c4ccccc43)cccc21
emission maximum (in C1CCCCC1): 395 nm | emission maximum (in CC(C)=O): 469 nm | emission maximum (in Cc1ccccc1): 419 nm | emission maximum (in ClC(Cl)Cl): 454 nm

SMILES: CC(C)(C)c1ccc2c(c1)c1cc(C(C)(C)C)ccc1n2-c1ccc(N(c2ccc(-c3ccc(-c4ccc(N(c5ccc(-n6c7ccc(C(C)(C)C)cc7c7cc(C(C)(C)C)ccc76)cc5)c5ccc(-n6c7ccc(C(C)(C)C)cc7c7cc(C(C)(C)C)ccc76)cc5)cc4)s3)cc2)c2ccc(-n3c4ccc(C(C)(C)C)cc4c4cc(C(C)(C)C)ccc43)cc2)cc1
emission maximum (in ClCCl): 465 nm

SMILES: C(=C\c1ccc(/C=C/c2ccc(N(c3ccccc3)c3ccccc3)cc2)cc1)/c1ccc(/C=C/c2ccc(N(c3ccccc3)c3ccccc3)cc2)cc1
emission maximum (in ClCCl): 510 nm

Further lines, results first:

emission maximum (in ClCCl): 528 nm
SMILES: CCCCCCc1cc2c3c(c1)c(=C1c4ccccc4S(=O)(=O)c4ccccc41)c1cc(CCCCCC)cc4c1N3c1c(cc(CCCCCC)cc1c4=C1c3ccccc3S(=O)(=O)c3ccccc31)c2=C1c2ccccc2S(=O)(=O)c2ccccc21

emission maximum (in CC#N): 440 nm | emission maximum (in ClCCl): 448 nm
SMILES: O=c1c2cc(Br)ccc2nc2n1[B-](F)(F)[n+]1ccccc1-2

emission maximum (in CC#N): 426 nm
SMILES: N#Cc1nn(-c2ccccc2Cl)nc1N1CCCC1

emission maximum (in C1CCCCC1): 400 nm | emission maximum (in C1CCOC1): 406 nm | emission maximum (in C1COCCO1): 405 nm | emission maximum (in CC#N): 411 nm | emission maximum (in CC(C)(C)O): 410 nm | emission maximum (in CC(C)O): 412 nm | emission maximum (in CCCCCC): 399 nm | emission maximum (in CCCCO): 414 nm | emission maximum (in CCO): 414 nm | emission maximum (in CCOC(C)=O): 405 nm | emission maximum (in CN(C)C=O): 409 nm | emission maximum (in CO): 416 nm | emission maximum (in CS(C)=O): 415 nm | emission maximum (in ClC(Cl)Cl): 401 nm | emission maximum (in ClCCl): 412 nm | emission maximum (in O): 452 nm | emission maximum (in OCCO): 421 nm
SMILES: Cc1cc(O)c(C(C)C)cc1/N=C/c1ccc(O)cc1

emission maximum (in C1COCCO1): 482 nm
SMILES: COc1ccc(C2=N/C(=C\c3ccc(C#N)cc3)C(=O)N2)cc1OC

emission maximum (in C1COCCO1): 426 nm
SMILES: N#Cc1ccc(/C=C2\N=C(c3ccccc3)OC2=O)cc1

emission maximum (in C1CCOC1): 467 nm | emission maximum (in CC#N): 499 nm | emission maximum (in CCCCCCC): 426 nm | emission maximum (in CS(C)=O): 513 nm | emission maximum (in ClCCl): 475 nm
SMILES: CSc1ccc(/C=C/c2cnc3ccccc3n2)cc1

emission maximum (in C1CCCCC1): 400 nm and 407.66 nm | emission maximum (in C1CCOC1): 397 nm | emission maximum (in CO): 400 nm
SMILES: c1ccc2cc3ccccc3cc2c1

emission maximum (in ClCCl): 415 nm
SMILES: CC(=O)c1c(N[C@@H](Cc2ccc(O)cc2)C(=O)O)c2ccc(N(C)C)cc2oc1=O

emission maximum (in C1CCCCC1): 312 nm
SMILES: CC(C)(C)c1ccc(-c2ccc(C(C)(C)C)cc2)cc1

emission maximum (in ClCCl): 526 nm
SMILES: CCCCCCCCCCCCN1C(=O)c2c(c3ccc4cc(-c5ccc(Cl)cc5)c(OC)cc4c3c3c2ccc2cc(-c4ccc(Cl)cc4)c(OC)cc23)C1=O

emission maximum (in C1CCOC1): 408 nm | emission maximum (in CC#N): 491 nm | emission maximum (in CCOC(C)=O): 412 nm | emission maximum (in CN(C)C=O): 449 nm | emission maximum (in ClCCl): 442 nm
SMILES: CCn1c2ccc(/C=C/c3ccc4c(c3)c3cc(-c5nc6ccccc6s5)ccc3n4CC)cc2c2cc(-c3nc4ccccc4s3)ccc21

emission maximum (in ClCCl): 413 nm
SMILES: Clc1cc(Cl)c(B2c3ccccc3Nc3ccccc32)c(Cl)c1

emission maximum (in CC#N): 348 nm | emission maximum (in CO): 356 nm | emission maximum (in O): 400 nm
SMILES: CNCCCN1c2ccccc2CCc2ccccc21

emission maximum (in CC#N): 540.43 nm | emission maximum (in CCCCCC): 486.26 nm
SMILES: O=C1c2cc(F)ccc2-c2cnccc21

emission maximum (in ClC(Cl)Cl): 753 nm
SMILES: CC1=CC(/C=C/c2ccc(N(C)C)cc2)=[N+]2C1=C(c1ccccc1)c1c(C)cc(/C=C/c3ccc(N(C)C)cc3)n1[B-]2(F)F

emission maximum (in ClCCl): 411 nm
SMILES: c1cc(-c2ccc3sc4ccccc4c3c2)cc(-c2cc(-c3cccc(-c4ccc5sc6ccccc6c5c4)c3)ncn2)c1

emission maximum (in ClCCl): 400 nm
SMILES: COc1ccc(-c2cnc(-c3ccccc3)o2)cc1OC

emission maximum (in CC#N): 480 nm | emission maximum (in CO): 500 nm | emission maximum (in ClCCl): 475 nm
SMILES: Cc1ccc(O)c(-c2[nH]c(=O)n3c2-c2ccccc2C3=O)c1

emission maximum (in CO): 662 nm | emission maximum (in ClC(Cl)Cl): 677 nm
SMILES: CC[n+]1c(C=C2C(=O)C(C=C3N(C)c4ccc(Cl)cc4C3(C)C)=C2[O-])[se]c2ccccc21

emission maximum (in ClC(Cl)Cl): 383 nm
SMILES: CC[Si](CC)(CC)c1cc2ccc3cccc4ccc(c1C(=O)NC(C)(C)C)c2c34

emission maximum (in CO): 566 nm
SMILES: c1ccc(N(c2ccccc2)c2ccc(-c3cnc(-c4ccncc4)s3)cc2)cc1

emission maximum (in C1CCCCC1): 350.75 nm | emission maximum (in O): 351 nm
SMILES: Oc1ccc2ccccc2c1

emission maximum (in ClC(Cl)Cl): 523 nm
SMILES: Cc1cccc(C)c1-c1cc2c(C)c3c4cc5nc6cc7c(cc6nc5cc4c3c(C)c2cc1-c1c(C)cccc1C)c1c(C)c2cc(-c3c(C)cccc3C)c(-c3c(C)cccc3C)cc2c(C)c71

emission maximum (in CC1CCCCC1): 498 nm | emission maximum (in CC#N): 530 nm
SMILES: C(=C\c1ccnc2ccccc12)/c1c2ccccc2cc2ccccc12

emission maximum (in ClCCl): 424 nm
SMILES: CN(C)c1ccc(N2c3sc4ccccc4c3Sc3sc4ccccc4c32)cc1
